Assay results reported in patent publication US5175172A, “Method of alleviating AIDS symptoms and compositions therefor” (priority 1988, dated 1992).
Where “and” joins values, the source holds several entries; their conditions need not be identical. Identical values can stand only once. Like-named read-outs stand apart in the source and are kept apart here.

Columns and labels:
HIV = details: for Antigenemia, evolution (%) in comparison with D0: D0 value 462 pg/ml
Description: (§1) Seven Month Follow-Up Study of Tacrine Administration to 26 HIV Infected Patients
(§2) Tacrine was supplied as capsules containing 63.5 mg. Tacrine hydrochloride,monohydrate corresponding to 50 mg. base. An inert excipient (lactose) was added to fill white hard size 3 gelatin capsules.
(§3) For the first 15 days, patients received 2 capsules a day (i.e., 1 capsule at 8 A.M. and 1 at 8 P.M.). After the first 15 days, if nausea had not occurred or had ceased, the dosage was augmented by 1 capsule (i.e., 1 capsule at 8 A.M., 1 at lunch time and 1 at 8 P.M.). After this second period of 15 days, if nausea had not occurred or had ceased, the dosage was augmented by a further 1 capsule, to reach 4 capsules a day (i.e., 1 capsule at 8 A.M., 1 at lunch time, 1 at 4 P.M. and 1 at 8 P.M.).
(§4) D0 --Inclusion Examination--Serological, hematological and clinical determinations. Patients are supplied with capsules of Tacrine for 15 days.
(§5) D15 --First Control after 15 Days Treatment--Serological, hematological and clinical determinations. Patients are supplied with capsules of Tacrine for 15 days.
(§6) D1mth --Second control after 1 month of Treatment--Serological, hematological and clinical determinations. Patients are supplied with capsules of Tacrine for 1 month.
(§7) D'n'mth --Same as D1mth. Following examinations of one month interval each.

T4 Lymphocytes = details: D0 value 203/mm^3
Description: as §1, §2, §3, §4, §5, §6, §7

[1] = Seven month follow-up of Tacrine in 26 HIV infected patients: tolerability, side effects and withdrawals; format: in vivo, human
Description: Tacrine was supplied as capsules containing 63.5 mg. Tacrine hydrochloride,monohydrate corresponding to 50 mg. base.
D0 --Inclusion Examination--Serological, hematological and clinical determinations.
as §7
Their mean age was 40.3 (range 27-65).
Mean duration of treatment was 6 months.

T4 = tested on: T4
Description: Seven Month Follow-Up of Tacrine (THA) vs Zidovudine (AZT) in 72 HIV Infected Patients
Comparison of serological and clinical status of HIV infected patients after THA versus AZT treatment in an open study.
[…] (61 males, 11 females) with HIV infection ([…], 10 stages II and III), received either AZT (46 patients 600-1200 mg./day) or THA (26 patients 150-250 mg/day). In cases of intolerance or inefficacy, treatment was discontinued and patients were treated by the other drug.

[2] = Seven month follow-up of THA vs AZT in HIV infected patients (open study): withdrawals for toxicity; format: in vivo, human; details: AZT n = 52; THA n = 51
Description: 70 patients (61 males, 11 females) with HIV infection (69 stage IV, 10 stages II and III), received either AZT (46 patients 600-1200 mg./day) or THA (26 patients 150-250 mg/day).
13 patients were treated by THA alone, 20 by AZT alone, 26 by AZT then THA and 13 by THA then AZT. Mean duration of treatment was 5.8 months for 53 courses of AZT 5.4 months for 52 courses of THA.

[3] = biological target: T1, reverse transcriptase of the HIV 1 virus (Human immunodeficiency virus type 1 group M subtype B, UniProt P04585); assay: Action on reverse transcriptase of the HIV 1 virus (3H thymidine triphosphate incorporation); format: biochemical
T1 construct: Action on Reverse Transcriptase of the HIV 1 Virus; made in house; host or cells: HIV 1 virus grown on CEM cells; virus pelleted from the culture medium and resuspended in Triton X 100 (viral lysate, not recombinant)
Description: For the direct study of the action of the product on the activity of the reverse transcriptase, the virus was concentrated by ultracentrifugation and the plugs of virus removed from the culture medium are resuspended in a solution containing 0.15% Triton X 100, 0.05M Tris at pH 7.8 and 20% glycerol.
These preparations, frozen at -20° C., are active for several months and served for the direct measurement of the products on enzymatic activity.
The THA is diluted as stated above and added to 40 μl of the incubation solution under a volume of 5.5 μl before the addition of 10 μl of the enzymatic preparation. Initial concentrations of the product are thus 10 times more concentrated than the final dilution in the presence of the enzyme. The controls received 5.5 μl of water.

CEM cells = tested on: CEM cells
Description: The CEM lines utilized for the multiplication of the virus, as well as for the inhibition studies, was provided by Service of Francoise Barre-Sinoussi, at the Institute Pasteur. The culture medium is RPMI 1640, supplemented with 10% fetal calf serum, 2% glutamine and 1% antibiotics. The cells are counted and subcultured in a culture flask every 3 or 4 days. In certain cases, the fungicide amphotericin B is added in dosages of 5 μg./ml.
The HIV 1 virus was provided from the same source and grown on CEM cells in the culture described above. The infection is created with a supernatant on the culture at a dose level of 50,000 cpm per 10^6 cells.
Healthy CEM cells were infected with HIV 1 virus at 40,000 cpm per 10^6 cells. After 7 days of infection at 37° C. an equal quantity of healthy cells are added, non-absorbed viruses removed and 5.10^5 cells/ml. and 5 ml. of medium are brought into the presence of THA.
During 5 or 6 days, the cells are counted and the supernatant of the culture is recovered for evaluation of the reverse transcriptase activity, that is to say, to determine the production of HIV 1 virus liberated by the cells. The cells are subculture into fresh medium containing the inhibitor at different concentrations.

[4] = Hepatotoxicity on administration of Tacrine (prior reports and applicants' studies); format: in vivo; details: more recent studies by Applicants
HIV 1 virus = details: 5 μM and 10 μM THA
Description: The HIV 1 virus was provided from the same source and grown on CEM cells in the culture described above. The infection is created with a supernatant on the culture at a dose level of 50,000 cpm per 10^6 cells. The infection is followed by the evaluation of the activity of the reverse transcriptase which can reach a level of 10^6 cpm/ml. at the end of the culture. […]
35 μl of an incubation medium are made up of a solution of 0.07M magnesium chloride, 0.028M potassium chloride, 0.07M Tris at pH 7.8, 1.4 mM DTT and contain 5 μCi of ^3 H thymidine triphosphate, 2.5 μl of poly A are added to a unit of OD/ml. and 2.5 μl of oligo dT 12-18 to 1 unit of O.D/ml. and finally 10 μl of the plug resuspension from the ultracentrifugation or a control enzymatic preparation. […] The incorporated radioactivity which is as precipitated as an acid insoluble form was washed on Millipore HA 0.45 micron filters and counted by liquid scintillation counters. […]

[5] = reported by Byrne and Acie, British Med. J. 298 (1989) 845; cited from earlier work
[6] = during the first month of treatment
[7] = within the first month of treatment

Nc1c2c(nc3ccccc13)CCCC2 [Tacrine, 9-Amino-1,2,3,4-tetrahydroacridine]
Antigenemia, evolution (%) in comparison with D0 (HIV; D1mth): -35.3%
Antigenemia, evolution (%) in comparison with D0 (HIV; D2mth): -22.1%
Antigenemia, evolution (%) in comparison with D0 (HIV; D3mth): -24%
Antigenemia, evolution (%) in comparison with D0 (HIV; D4mth): -17%
Antigenemia, evolution (%) in comparison with D0 (HIV; D5mth): -19.4%
Antigenemia, evolution (%) in comparison with D0 (HIV; D6mth): -54%
Antigenemia, evolution (%) in comparison with D0 (HIV; D7mth): -51.3%
Antigenemia, evolution (%) in comparison with D0 (HIV; D15): -38.5%
Opportunistic infections, cases (HIV; in 4 patients): 4 cases
Kaposi sarcoma emergence (HIV; number of cases, 26 patients): 2
Opportunistic infections: pneumocystosis (HIV; number of cases, 26 patients): 1
Opportunistic infections: toxoplasmosis (HIV; number of cases, 26 patients): 1
Opportunistic infections, patients (HIV; seven month follow-up): 4/26
Mortality (HIV; seven month follow-up, 26 patients): none
T4 Lymphocytes counts, evolution (%) in comparison with D0 (T4 Lymphocytes; D1mth): +16.7%
T4 Lymphocytes counts, evolution (%) in comparison with D0 (T4 Lymphocytes; D2mth): +23.9%
T4 Lymphocytes counts, evolution (%) in comparison with D0 (T4 Lymphocytes; D3mth): +19.5%
T4 Lymphocytes counts, evolution (%) in comparison with D0 (T4 Lymphocytes; D4mth): +28%
T4 Lymphocytes counts, evolution (%) in comparison with D0 (T4 Lymphocytes; D5mth): +26.6%
T4 Lymphocytes counts, evolution (%) in comparison with D0 (T4 Lymphocytes; D6mth): +8.4%
T4 Lymphocytes counts, evolution (%) in comparison with D0 (T4 Lymphocytes; D7mth): +25.6%
T4 Lymphocytes counts, evolution (%) in comparison with D0 (T4 Lymphocytes; D15): +5%
Hematotoxicity: decrease of hematological counts ([1]; 26 patients): 0%
Hepatotoxicity: transaminase elevation ([1]; 26 patients): 0%
Nausea, cases ([1]; after the first month): 2 cases
Nausea, incidence ([1]; after the first month): 10%
Nausea, cases [1, 6]: 9 cases
Nausea, incidence [1, 6]: 35%
Withdrawals for side effects (severe nausea or neurologic), cases [1, 7]: 2 cases
Withdrawals for side effects (severe nausea or neurologic), incidence [1, 7]: 8%
T4 /mm^3, mean variation (%) in comparison with D0 (T4; D1mth): +20.5%
T4 /mm^3, mean variation (%) in comparison with D0 (T4; D2mth): +31.7%
T4 /mm^3, mean variation (%) in comparison with D0 (T4; D3mth): +55.2%
T4 /mm^3, mean variation (%) in comparison with D0 (T4; D4mth): +74.8%
T4 /mm^3, mean variation (%) in comparison with D0 (T4; D5mth): +91.9%
T4 /mm^3, mean variation (%) in comparison with D0 (T4; D6mth): +52%
T4 /mm^3, mean variation (%) in comparison with D0 (T4; D7mth): +68.3%
Withdrawals for toxicity, number [2]: 4
Withdrawals for toxicity, percent [2]: 8%
IC50 ([3]; 37° C., 1 hour, read-out: 50% inhibition (Di50) of HIV 1 reverse transcriptase (converted)): 400 µM and 504 µM
Inhibition of HIV 1 reverse transcriptase in combination with HPA 23 ([3]; HPA 23 at 4 μg/ml): synergistic effect with HPA 23
Inhibiting effect on reverse transcriptase ([3]; conclusions): low
IC50 ([3]; specificity test vs DNA polymerase, same concentrations, read-out: Di50 with respect to the reverse transcriptase): 450 µM
Dose dependence of protective effect in CEM cultures (CEM cells): dose-dependent
Proliferation of HIV 1 infected CEM cultures (CEM cells; 1 μM THA): viral infection inhibits the proliferation
Proliferation of HIV 1 infected CEM cultures (CEM cells; 5 μM THA): the cells multiply up to the 16th. day and then decline to be destroyed like the previous cultures right up to the 28th day
Proliferation of HIV 1 infected CEM cultures (CEM cells; 10 μM THA): the cultures continue to proliferate right up to the 28th day
Protection of CEM cultures against lytic effect of HIV virus (CEM cells; at the 5 μM and more particularly at the 10 μM level): protects CEM cultures against the lytic effect of the HIV virus
Hepatotoxicity with purified sources of Tacrine [4]: hepatotoxicity can be avoided by utilizing purified sources of Tacrine
Viral replication with respect to control cultures (HIV 1 virus): viral replication persists although significantly diminished
Hepatotoxicity on long term administration [5]: long term administration of Tacrine is not practical because of hepatotoxicity
